Consider 15 compounds from patent publication US10336731B2, “Substituted 1H-indole-2-carboxamide compounds as indoleamine-2,3-dioxygenase inhibitors” (Merck Sharp & Dohme Corp., priority 2015, dated 2019).

One experiment addresses IDO (SKOV-3 cells) (Homo sapiens (Human), UniProt P14902). The experiment is described as follows: IDO cell-based assay (kynurenine production in IFNγ-induced SKOV-3 cells). Particulars: IFNγ 500 ng/ml, 500 μM L-Trp, 48 h, read-out: pIC50, IDO cellular assay (SKOV3) (converted). From the text: (§1) For REF1-REF3 and Compounds 1-11, two different types of assay were employed: 1. An IDO biochemical coupled assay which utilised recombinantly produced and purified IDO enzyme in combination with the enzyme formamidase. This coupled enzyme system allowed conversion of N-formylkynurenine produced by IDO activity to kynurenine which was then quantified by fluorescence following addition of Erhlich's Reagent. 2. A cell-based assay for detecting the effect of test compounds on kynurenine production in cancer cells. This assay utilised cancer cells which expressed IDO and as such was used as a means of testing compound activity at the enzyme in a cell-based context. The protocols for these are set out below.
SKOV-3 ovary adenocarcinoma (ATCC) cells were grown in McCoys 5A+L-glutamax medium supplemented with 15% foetal bovine serum. On the day of assay, cells were detached using trypsin-EDTA (0.25% v/v), re-suspended in assay media (RPMI 1640 phenol red free+L-glutamine supplemented with 10% dialysed foetal bovine serum). SKOV-3 cells were seeded at 40K cells per well into 96-well plates containing test samples/vehicle control together with 500 μM L-Trp. Cells were then incubated for 48 h at 37° C. 5% CO2. IFNγ was also added at 500 ng/ml for the 48 h incubation in order to induce expression of IDO. Plates were centrifuged and the supernatant was removed and incubated for 5 min in the presence of 1% Erhlich's reagent. Kynurenine levels were then quantified by measuring absorbance at 490 nm.

The next experiment deals with hIDO1 (Homo sapiens (Human), UniProt P14902). The experiment is described as follows: IDO1 cellular assay in HEK293 cells transiently expressing hIDO1. The note with it: HEK293 cell line transiently expressing hIDO1, n=1. The experiment is classed as cell-based. On the procedure:
Compounds to be tested were serially diluted in ten 3-fold steps in DMSO starting from 10 mM DMSO stocks. Compound dilutions or DMSO alone were then dispensed from the dilution plate into a Greiner black 384-well assay plate (catalog #781086) using an Echo 550 acoustic liquid handler (Labcyte).
HEK293 cell pellets were resuspended to 5×10^5 cells/mL in complete HEK293 culture media (89% DMEM, 10% FBS, 1% penicillin/streptomycin). Suspended cells (2 mL) were dispensed into each well of a 6-well Corning plate (Catalog#3516). Cells were allowed to attach and were incubated for 20 hours at 37 degrees Celsius in a 5% CO2 incubator. […]
Media was removed from the cells which were then washed with 2 mL Dulbecco's phosphate-buffered saline (DPBS). […] Plates were incubated at 37 degrees in a 5% CO2 incubator overnight to develop fluorescence. […] The resulting fluorescence was measured in an Envision plate reader (Perkin Elmer) with a 400/25 nm excitation filter and an 510/20 nm emission filter.
The fluorescence intensity of each well was corrected for the background observed in wells with untransfected cells and was expressed as a fraction of the intensity observed in wells of IDO1 transfected cells and DMSO only. Potencies were calculated by […] to the four parameter logistic IC50 equation.

The target of another experiment is human IDO protein (Homo sapiens (Human), UniProt P14902). Nature of the experiment: IDO biochemical coupled assay (formamidase, Ehrlich's reagent). The note with it: 0.17 μM human IDO, 120 min pre-incubation, 45 μM L-Trp; read-out: hIDO biochemical assay pIC50 (converted).
Description: as §1
0.17 μM of human IDO protein was pre-incubated for 120 min at RT with test compounds in the presence of 50 mM KPO4, pH 7.0, 0.5 mM EDTA, 0.5 mM EGTA, 0.05% Triton X-100, 20 mM ascorbate, 500 U/ml catalase, 10 μM methylene blue at RT in a 384 well plate. 0.05 μg/μl kynurenine formamidase and 45 μM L-tryptophan (L-Trp) were added and the assays were incubated at RT for 40 min. Assays were stopped and the level of kynurenine was determined by incubation with Ehrlich's reagent to a final concentration of 1.33% at RT for 5 min. Fluorescence intensity was read at 475 nm/530 nm.

Sequence of IDO (SKOV-3 cells) (P14902 whole entry): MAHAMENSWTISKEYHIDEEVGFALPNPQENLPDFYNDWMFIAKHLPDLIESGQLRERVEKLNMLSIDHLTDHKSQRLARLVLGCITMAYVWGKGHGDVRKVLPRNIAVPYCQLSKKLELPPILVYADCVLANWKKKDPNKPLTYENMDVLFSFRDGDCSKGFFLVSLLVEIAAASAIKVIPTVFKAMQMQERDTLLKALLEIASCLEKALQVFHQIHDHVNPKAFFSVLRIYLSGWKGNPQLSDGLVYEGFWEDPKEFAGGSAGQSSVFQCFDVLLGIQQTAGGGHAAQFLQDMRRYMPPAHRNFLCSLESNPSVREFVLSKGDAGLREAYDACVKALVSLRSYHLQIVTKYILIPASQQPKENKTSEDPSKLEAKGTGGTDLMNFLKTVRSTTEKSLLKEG
Sequence of human IDO protein (P14902 whole entry): as above
Sequence of hIDO1 (P14902 whole entry): as above

Regarding `Cn1cc(C2(NC(=O)c3cc4cc(Cl)ccc4[nH]3)CC2)cn1` [REF 1, reference compound], the IC50 on IDO (SKOV-3 cells) was 126 nM.
On the same count and under the same terms, the figure for `C[C@H]1C[C@@]1(NC(=O)c1cc2cc(Cl)ccc2[nH]1)c1cnn(-c2ccc(F)cc2)c1` (single isomer, unassigned) [Compound 11, enantiomer 1] is 28.2 nM; for `C[C@H]1C[C@@]1(NC(=O)c1cc2cc(Cl)ccc2[nH]1)c1cnn(-c2ccc(Cl)cc2)c1` (single isomer, unassigned) [Compound 10, enantiomer 1] it is 34.7 nM.
On the same count and under the same terms, the value for `C[C@H]1C[C@@]1(NC(=O)c1cc2cc(Cl)ccc2[nH]1)c1cnn(-c2ccc(Cl)cc2)c1` (single isomer, unassigned) [Compound 10, enantiomer 2] was 11.7 nM; that for `Cn1cc(C2(NC(=O)c3cc4cc(Br)ccc4[nH]3)CC2)cn1` [REF 3, reference compound] was 182 nM; that for `Cn1cc(C2(NC(=O)c3cc4cc(Br)cc(F)c4[nH]3)CC2)cn1` [Compound 6] was 83.2 nM.
On to `CCn1cc(C2(NC(=O)c3cc4cc(Cl)ccc4[nH]3)CC2)cn1` [REF 2, reference compound], for which the IC50 at IDO (SKOV-3 cells) was 186 nM.
Consider `C[C@H]1C[C@@]1(NC(=O)c1cc2cc(Cl)ccc2[nH]1)c1cnn(-c2ccc(F)cc2)c1` (single isomer, unassigned) [Compound 11, enantiomer 2], for which the IC50 on IDO (SKOV-3 cells) was 10 nM.
Still for that read-out and setting: the figure for `O=C(NC1(c2cnn(-c3ccccc3)c2)CC1)c1cc2cc(Cl)ccc2[nH]1` [Compound 5] is 91.2 nM; for `CCc1nn(C)cc1C1(NC(=O)c2cc3cc(Cl)ccc3[nH]2)CC1` [Compound 3] it is 89.1 nM.
For the compound `C[C@@H]1C[C@]1(NC(=O)c1cc2cc(C#N)ccc2[nH]1)c1cnn(C)c1` (stereo in doubt) [Compound 12, 5-cyano-N-((1R,2R)-2-methyl-1-(1-methyl-1H-pyrazol-4-yl)cyclopropyl)-1H-indole-2-carboxamide], the IC50 against hIDO1 is 202 nM.
Take `C[C@H]1C[C@@]1(NC(=O)c1cc2cc(C#N)ccc2[nH]1)c1cnn(-c2ccccc2)c1` (single isomer, unassigned) [Compound 9, enantiomer 1]: on IDO (SKOV-3 cells), the IC50 is 77.6 nM.
For the compound `C[C@H]1C[C@@]1(NC(=O)c1cc2cc(Br)ccc2[nH]1)c1cnn(C)c1` (racemic) [Compound 2, racemic], the IC50 on human IDO protein is 398 nM; on IDO (SKOV-3 cells), 31.6 nM.
As to `C[C@H]1C[C@@]1(NC(=O)c1cc2cc(C#N)ccc2[nH]1)c1cnn(-c2ccccc2)c1` (single isomer, unassigned) [Compound 9, enantiomer 2], the IC50 on IDO (SKOV-3 cells) is 43.7 nM.
Same read-out and setting: the figure for `CC(C)c1nn(C)cc1C1(NC(=O)c2cc3cc(Cl)ccc3[nH]2)CC1` [Compound 4] is 87.1 nM.
